Patent US20040054010A1, “Endosulfan formulation and methods of use thereof” (priority 2000, published 2004)
Counter-ions that a name gives are not always drawn. Like-named read-outs stand apart in the source and are kept apart here.

Legend:
Heliothis virescens = conditions: topical application in acetone; Walfenbarger and Guerra, 1972; cited from earlier work
[1] = system: Musca domestica (house fly); conditions: topical application in acetone, cited from earlier work
Mice = conditions: ingestion, Dorough et al., 1978; cited from earlier work
Helicoverpa zea = conditions: topical application in acetone; Walfenbarger and Guerra, 1972; cited from earlier work
Rats [2] = test: Acute toxicity after ingestion by rats; type: in vivo; conditions: rats and mice (Table 1)
Source text: A comparison of the acute toxicity of the isomers and the metabolite endosulfan sulfate after ingestion by rats and mice is shown in Table 1. […] Most studies investigating the chronic toxicity of endosulfan in mammals have not differentiated between the isomers. An exception is the neurotoxic action of endosulfan that has been attributed to the alpha-isomer.

[3] = system: GABA-gated chloride channel; conditions: Abalis et al., 1985, 1986; Gant et al., 1987; cited from earlier work
Rats [4] = conditions: ingestion, Goebel et al., 1982; cited from earlier work
[5] = Singh et al., 1991, cited from earlier work

| Structure (SMILES) | LD50 (Heliothis virescens) | LD50 ([1]; Barnes and Ware, 1965) [µg/g] | LD50 ([1]; Lindquist and Dahm, 1957) [μg · fly^−1] | LD50 (Mice) [mg/kg] | LD50 (Helicoverpa zea) [µg/g] | acute toxicity relative to the beta-isomer (Rats [2]) | potency at inhibiting GABA-induced chloride flux relative to the beta-isomer [3] | LD50 (Rats [4]) [mg/kg] | susceptibility to photolysis relative to the alpha-isomer [5] | vulnerability to chemical hydrolysis relative to the alpha-isomer ([5]; neutral and alkali pH) |
| --- | --- | --- | --- | --- | --- | --- | --- | --- | --- | --- |
| O=S1OC[C@@H]2[C@H](CO1)[C@@]1(Cl)C(Cl)=C(Cl)[C@]2(Cl)C1(Cl)Cl (stereo partly drawn) [alpha-endosulfan] | high* | 5.5 | 0.14 | 11 | 630 | approximately four fold higher | much more potent | 76 |  |  |
| O=S1OC[C@@H]2[C@H](CO1)[C@]1(Cl)C(Cl)=C(Cl)[C@]2(Cl)C1(Cl)Cl (stereo partly drawn) [beta-endosulfan] | 4960 µg/g | 9.0 | 0.19 | 36 | 4140 |  |  | 240 | over twice as susceptible | approximately 25% |
| O=S1(=O)OCC2C(CO1)C1(Cl)C(Cl)=C(Cl)C2(Cl)C1(Cl)Cl (stereo not shown) [endosulfan sulfate] | high* | 9.5 |  | 8 | 820 | approximately four fold higher |  | 76 |  |  |
